Experimental data taken from US11547663B2, “Unit aerosol doses for anticoagulation” (InCarda Therapeutics, Inc., priority 2015, dated 2023).
Like-named read-outs stand apart in the source and are kept apart here.

Assays:
[1] = system: intrinsic pathway; assay: Activated clotting time (ACT) in dog blood after IV or IT anticoagulant; format: in vivo; conditions: for ACT LA: Left Atrium
Protocol: To assess the efficacy of anticoagulants delivered via intratracheal (IT) inhalation, four different anticoagulants were tested in a dog study. PK as well as biomarkers of blood in the Left Atrium (LA) and Coronary Sinus (CS) were monitored. These locations were chosen as these are the sites whereby clot formation occurs that leads to Myocardial Infarction or results in stroke. These drugs and doses were selected to represent a wide spectrum of anticoagulant classes. One anticoagulant was tested in one dog on each arm of this study. Activated clotting time (ACT), measures the time in seconds needed for whole blood to clot upon exposure to an activator of an intrinsic pathway by the addition of such as factor XII activators. Measurements were performed in the blood collected from Left Atrium (LA) and in the Coronary sinus (CS)—the targets for stroke prevention and Myocardial Infarction (MI), respectively.

[2] = system: extrinsic system; assay: Prothrombin Time (PT) in dog blood after IV or IT anticoagulant; format: in vivo; conditions: for PTCS: Coronary Sinus; for PT LA: Left Atrium
Protocol: (§1) To assess the efficacy of anticoagulants delivered via intratracheal (IT) inhalation, four different anticoagulants were tested in a dog study.
(§2) PK as well as biomarkers of blood in the Left Atrium (LA) and Coronary Sinus (CS) were monitored. These locations were chosen as these are the sites whereby clot formation occurs that leads to Myocardial Infarction or results in stroke.
(§3) These drugs and doses were selected to represent a wide spectrum of anticoagulant classes. One anticoagulant was tested in one dog on each arm of this study.
(§4) Factor Xa inhibition; Prothrombin Time (PT): measures the integrity of the extrinsic system as well as factors common to both systems; and Activated Partial Thromboplastin Time (aPTT or PTT): measures the integrity of the intrinsic system and the common components and factor-Xa inhibition.
(§5) Measurements were performed in the blood collected from Left Atrium (LA) and in the Coronary sinus (CS)—the targets for stroke prevention and Myocardial Infarction (MI), respectively.

[3] = system: intrinsic system; assay: Activated Partial Thromboplastin Time (aPTT or PTT) in dog blood after IV or IT anticoagulant; format: in vivo; conditions: for PTTCS: Coronary Sinus; for PTT LA: Left Atrium
Protocol: as §1, §2, §3, §4, §5

[4] = Dog study summary: effect of inhaled anticoagulant on tested biomarkers; format: in vivo; conditions: inhaled (IT)
Protocol: as §1, §2, §3
The standard laboratory tests commonly used to evaluate the efficacy of anticoagulants are the following:
The first test, ACT, was the key in the management of ACS. The latter three tests provided information regarding the prevention of clot formation and growth of an existing clot. The table below summarizes the measurements performed for each anticoagulant in the study.

[5] = cited from earlier work
[6] = IT Bivalirudin 2 mg/kg, 0 min (baseline)
[7] = IT Bivalirudin 8 mg/kg, 0 min (baseline)
[8] = IV Bivalirudin 2 mg/kg, 0 min (baseline)

## Bivalirudin
[1]; IT (inhaled)
  effect on ACT: NO effect
[1]; IT (inhaled), listed as bivalirudin
  effect on ACT: no prolongation
[1]; [6]
  ACT LA: 90 s
[1]; IT Bivalirudin 2 mg/kg, 1 min
  ACT LA: 95 s
[1]; IT Bivalirudin 2 mg/kg, 3 min
  ACT LA: 95 s
[1]; IT Bivalirudin 2 mg/kg, 5 min
  ACT LA: 101 s
[1]; IT Bivalirudin 2 mg/kg, 10 min
  ACT LA: 101 s
[1]; IT Bivalirudin 2 mg/kg, 15 min
  ACT LA: 95 s
[1]; IT Bivalirudin 2 mg/kg, 30 min
  ACT LA: 95 s
[1]; IT Bivalirudin 2 mg/kg, 60 min
  ACT LA: 95 s
[1]; [7]
  ACT LA: 78 s
[1]; IT Bivalirudin 8 mg/kg, 1 min
  ACT LA: 95 s
[1]; IT Bivalirudin 8 mg/kg, 3 min
  ACT LA: 89 s
[1]; IT Bivalirudin 8 mg/kg, 5 min
  ACT LA: 90 s
[1]; IT Bivalirudin 8 mg/kg, 10 min
  ACT LA: 89 s
[1]; IT Bivalirudin 8 mg/kg, 15 min
  ACT LA: 90 s
[1]; IT Bivalirudin 8 mg/kg, 30 min
  ACT LA: 90 s
[1]; IT Bivalirudin 8 mg/kg, 60 min
  ACT LA: 89 s
[1]; IV
  effect on ACT: prolonged
[1]; [8]
  ACT LA: 106 s
[1]; IV Bivalirudin 2 mg/kg, 1 min
  ACT LA: 242 s
[1]; IV Bivalirudin 2 mg/kg, 3 min
  ACT LA: 214 s
[1]; IV Bivalirudin 2 mg/kg, 5 min
  ACT LA: 203 s
[1]; IV Bivalirudin 2 mg/kg, 10 min
  ACT LA: 174 s
[1]; IV Bivalirudin 2 mg/kg, 15 min
  ACT LA: 168 s
[1]; IV Bivalirudin 2 mg/kg, 30 min
  ACT LA: 135 s
[1]; IV Bivalirudin 2 mg/kg, 60 min
  ACT LA: 106 s
[2]; IT (inhaled)
  effect on PT: NO effect
[2]; [6]
  PTCS: 6.75 s
  PT LA: 6.1 s
[2]; IT Bivalirudin 2 mg/kg, 3 min
  PTCS: 5.45 s
  PT LA: 5.4 s
[2]; IT Bivalirudin 2 mg/kg, 15 min
  PTCS: 9.3 s
  PT LA: 5.7 s
[2]; IT Bivalirudin 2 mg/kg, 60 min
  PTCS: 6.3 s
  PT LA: 7.2 s
[2]; IT Bivalirudin 2 mg/kg, 1 min
  PT LA: 6 s
[2]; IT Bivalirudin 2 mg/kg, 5 min
  PT LA: 5.8 s
[2]; IT Bivalirudin 2 mg/kg, 10 min
  PT LA: 6.2 s
[2]; IT Bivalirudin 2 mg/kg, 30 min
  PT LA: 5.8 s
[2]; [7]
  PTCS: 6.5 s
  PT LA: 6.4 s
[2]; IT Bivalirudin 8 mg/kg, 3 min
  PTCS: 5.5 s
  PT LA: 6.9 s
[2]; IT Bivalirudin 8 mg/kg, 15 min
  PTCS: 7 s
  PT LA: 6.7 s
[2]; IT Bivalirudin 8 mg/kg, 60 min
  PTCS: 5.5 s
  PT LA: 5.9 s
[2]; IT Bivalirudin 8 mg/kg, 1 min
  PT LA: 6.1 s
[2]; IT Bivalirudin 8 mg/kg, 5 min
  PT LA: 6.3 s
[2]; IT Bivalirudin 8 mg/kg, 10 min
  PT LA: 7 s
[2]; IT Bivalirudin 8 mg/kg, 30 min
  PT LA: 6.6 s
[2]; IV
  effect on PT: prolonged
[2]; [8]
  PTCS: 5.8 s
  PT LA: 5.8 s
[2]; IV Bivalirudin 2 mg/kg, 3 min
  PTCS: 25 s
  PT LA: 28.8 s
[2]; IV Bivalirudin 2 mg/kg, 15 min
  PTCS: 17.2 s
  PT LA: 12.1 s
[2]; IV Bivalirudin 2 mg/kg, 60 min
  PTCS: 6 s
  PT LA: 6.4 s
[2]; IV Bivalirudin 2 mg/kg, 1 min
  PT LA: 34.6 s
[2]; IV Bivalirudin 2 mg/kg, 5 min
  PT LA: 20.8 s
[2]; IV Bivalirudin 2 mg/kg, 10 min
  PT LA: 17.4 s
[2]; IV Bivalirudin 2 mg/kg, 30 min
  PT LA: 7.6 s
[3]; IT (inhaled)
  effect on aPTT: NO effect
[3]; [6]
  PTTCS: 8.4 s
  PTT LA: 8.4 s
[3]; IT Bivalirudin 2 mg/kg, 3 min
  PTTCS: 120 s
  PTT LA: 9.1 s
[3]; IT Bivalirudin 2 mg/kg, 15 min
  PTTCS: 120 s
  PTT LA: 9.4 s
[3]; IT Bivalirudin 2 mg/kg, 60 min
  PTTCS: 10.7 s
  PTT LA: 11.9 s
[3]; IT Bivalirudin 2 mg/kg, 1 min
  PTT LA: 8.3 s
[3]; IT Bivalirudin 2 mg/kg, 5 min
  PTT LA: 8.8 s
[3]; IT Bivalirudin 2 mg/kg, 10 min
  PTT LA: 11.5 s
[3]; IT Bivalirudin 2 mg/kg, 30 min
  PTT LA: 8.2 s
[3]; [7]
  PTTCS: 12.5 s
  PTT LA: 10.3 s
[3]; IT Bivalirudin 8 mg/kg, 3 min
  PTTCS: 8.1 s
  PTT LA: 11.9 s
[3]; IT Bivalirudin 8 mg/kg, 15 min
  PTTCS: 120 s
  PTT LA: 9.6 s
[3]; IT Bivalirudin 8 mg/kg, 60 min
  PTTCS: 21.3 s
  PTT LA: 13 s
[3]; IT Bivalirudin 8 mg/kg, 1 min
  PTT LA: 8.4 s
[3]; IT Bivalirudin 8 mg/kg, 5 min
  PTT LA: 11.3 s
[3]; IT Bivalirudin 8 mg/kg, 10 min
  PTT LA: 9.5 s
[3]; IT Bivalirudin 8 mg/kg, 30 min
  PTT LA: 9.9 s
[3]; IV
  effect on aPTT: prolonged
[3]; [8]
  PTTCS: 10.6 s
  PTT LA: 9.7 s
[3]; IV Bivalirudin 2 mg/kg, 3 min
  PTTCS: 35.1 s
  PTT LA: 36 s
[3]; IV Bivalirudin 2 mg/kg, 15 min
  PTTCS: 120 s
  PTT LA: 19.1 s
[3]; IV Bivalirudin 2 mg/kg, 60 min
  PTTCS: 120 s
  PTT LA: 11 s
[3]; IV Bivalirudin 2 mg/kg, 1 min
  PTT LA: 42.4 s
[3]; IV Bivalirudin 2 mg/kg, 5 min
  PTT LA: 26.3 s
[3]; IV Bivalirudin 2 mg/kg, 10 min
  PTT LA: 23.8 s
[3]; IV Bivalirudin 2 mg/kg, 30 min
  PTT LA: 15.7 s
[4]
  effect of inhaled drug on tested biomarkers (summary): showed NO
[5]; as stated in b199
  half-life: 1 to 2 h
[5]; as stated in b211
  half-life: 2 to 4 h
